Results reported in patent US20220213126A1, “SMALL MOLECULE AUTOPHAGY INDUCERS FOR THE TREATMENT OF CANCER AND NEURODEGENERATIVE DISEASES” (John Wayne Cancer Institute, priority 2019, published 2022).
pIC50: −log10 of the molar value.

How the values were obtained:
[1] = Stability in simulated gastric fluid; format: physicochemical
[2] = system: ULK1; assay: Western blot of autophagy proteins in U87 cells; format: cell-based; details: 10 μM, 12-48 hours
Description: FIG. 14 is a Western blot of autophagy proteins in U87 GBM cells treated with vehicle (control), VMY-BC-1, or Rapamycin. Western blot is shown for p-ULK1, LC3 A/B, and cleaved PARP.
The effect of VMY-BC-1 on autophagy-related proteins in U87 cells was tested. Protein extracts were made from cells treated with vehicle control, VMY-BC-1 (10 μM), or rapamycin (200 nM) for 12-48 hours.

[3] = Mouse brain homogenate binding (in vitro binding study); format: in vitro ADME
Description: Free drug fraction in brain and plasma compartment was determined in vitro (Table 7). Brain to plasma (B/P) ratio was also determined in vivo (Table 8).

[4] = system: polyQ-expressing C. elegans; assay: PolyQ aggregation in C. elegans Huntington's disease model; format: in vivo; details: 1 μM, 72 hours
Description: Synchronized populations of polyQ-expressing C. elegans were grown for 72 hours on media containing 1 μM VMY-BC-1. PolyQ aggegrative vacuoles were detected using confocal microscopy. PolyQ aggregations were decreased compared to vehicle (DMSO) (FIG. 21A). Synchronized populations of wild-type worms were grown on media containing VMY-BC-1 from 0.1 to 10 μM.

[5] = system: MDA-MB-231 cells; assay: TNBC cell invasion, Transwells coated with Matrigel; format: cell-based; details: 10 μM, 24-72 hours
Description: FIGS. 2A and 2B are graphs showing the effect of VMY-BC-1 on TNBC cells. […] The percentage of cells crossing the chamber is presented as the mean±SEM. *P<0.05.
Effect of VMY-BC-1 on Triple Negative Breast Cancer Cell Lines A trans-stilbene boronic acid analog, VMY-BC-1, was tested against a TNBC cell line.

[6] = In vivo ADME/plasma pharmacokinetics in male CD1 mice
Description: FIG. 8 is a graph showing plasma pharmacokinetics of VMY-BC-1 in vivo. Concentrations are expressed as the mean±SEM.
In vivo ADME characteristics were determined in male CD1 mice following VMY-BC-1 administration at 1 mg/kg intravenously and 25 mg/kg and 100 mg/kg orally (FIG. 8). […] Sustained oral absorption following the 100 mg/kg oral administration indicated solubility was not limited oral absorption.

[7] = molecular target: T1, CYP2D6 (Homo sapiens, UniProt P10635); assay: CYP inhibition in pooled human liver microsomes; format: in vitro ADME
T1 construct: from tissue; host or cells: pooled human liver microsomes

[8] = LogD octanol-water; format: physicochemical; details: pH 7.4, read-out: LogD (octanol-water partition coefficient), pH 7.4
Description: Moreover, PK studies of RSV in humans conclude that even high concentration of RSV might be insufficient to achieve in vivo concentrations required for the systemic prevention of cancer. Therefore, in vitro ADME assays were carried out to assess VMY-BC-1 and to identify properties for further optimization.

[9] = molecular target: T2, CYP2C9 (Homo sapiens, UniProt P11712); assay: CYP inhibition in pooled human liver microsomes; format: in vitro ADME
T2 construct: from tissue; host or cells: pooled human liver microsomes

[10] = system: ULK1; assay: Western blot of autophagy proteins in MDA-MB-231 cells; format: cell-based; details: 10 μM, MDA-MB-231, different time points
Description: FIG. 6 is a Western blot of autophagy proteins in TNBC cells treated with vehicle (control), VMY-BC-1, or Rapamycin. Western blot is shown for p-ULK1, LC3 A/B, and cleaved PARP.
To identify the functional target of VMY-BC-1, preliminary cell viability assays were carried out using siRNA to knock down each of the 10 identified binding proteins. […] Considering that that low ULK1 expression is associated with TNBC disease progression (Tang et al., Breast Cancer Res. Treat. 134:549-560, 2012) and autophagy controls the level of various DNA repair and checkpoint proteins in the DNA damage response pathway (Czarny et al., Int. J. Mol. Sci. 16:2641-2662, 2015; Gomes et al., Int. J. Mol. Sci. 18:2351, 2017), ULK1 activity in response to VMY-BC-1 was investigated. Protein extracts were made from MDA-MB-231 cells treated with vehicle control, VMY-BC-1 (10 μM), and Rapamycin (200 nM) at different time points.

[11] = system: MDA-MB-231; assay: TMT quantitative proteomics with Ingenuity Pathway Analysis; format: cell-based; details: 10 μM
Description: A global quantitative proteomics approach using multiplexed tandem mass tagged (TMT) isotope labeling technology and shotgun mass spectrometry (Hung et al., Anal. Chem. 84:161-170, 2012) (FIG. 3) was used to quantitate approximately 5,400 proteins. MDA-MB-231 cells were treated with vehicle control (DMSO) or 10 μM VMY-BC-1 for 4 time points. Equal amounts of protein from cell lysates were trypsin digested (Step 1) and labelled with TMT 10-plex reagent (Step 2).

[12] = system: wild-type C. elegans; assay: C. elegans lifespan; format: in vivo
Description: Synchronized populations of wild-type L1 C. elegans hatched overnight were transferred to agar plates followed by VMY-BC-1 was added freshly from a 5 mM stock to the NGM media. Water was used as control. The L4 population of worms was randomly split to control or treatment groups in a density of about 20-30 worms per 6 cm plate dish.
The first day of adulthood was considered day one. In all the experiments with late-onset administration of VMY-BC-1, synchronized L4 animals were moved to the media supplemented with 5′-fluorodeoxyuridine (FUDR, Cayman chemicals) at a final concentration of 1 μM for 2 days to prevent reproduction, then were moved to FUDR-free NGM plates until the final treatments at day 10. The animals that crawled off the plate, ruptured, or died from internal hatching were censored. Worms were transferred to fresh plates every day after reaching adulthood, and every 2 days after reaching 10 days of age. Prodding test was used to count the number of dead worms. Survival curve was plotted using Prism 7 and the significance of the curves calculated by Log-rank (Mantel-Cox) test.
Synchronized populations of polyQ-expressing C. elegans were grown for 72 hours on media containing 1 μM VMY-BC-1. PolyQ aggegrative vacuoles were detected using confocal microscopy. PolyQ aggregations were decreased compared to vehicle (DMSO) (FIG. 21A). […]

[13] = molecular target: T3, CYP2C19 (Homo sapiens, UniProt P33261); assay: CYP inhibition in pooled human liver microsomes; format: in vitro ADME
T3 construct: from tissue; host or cells: pooled human liver microsomes
T3 sequence (P33261 whole entry): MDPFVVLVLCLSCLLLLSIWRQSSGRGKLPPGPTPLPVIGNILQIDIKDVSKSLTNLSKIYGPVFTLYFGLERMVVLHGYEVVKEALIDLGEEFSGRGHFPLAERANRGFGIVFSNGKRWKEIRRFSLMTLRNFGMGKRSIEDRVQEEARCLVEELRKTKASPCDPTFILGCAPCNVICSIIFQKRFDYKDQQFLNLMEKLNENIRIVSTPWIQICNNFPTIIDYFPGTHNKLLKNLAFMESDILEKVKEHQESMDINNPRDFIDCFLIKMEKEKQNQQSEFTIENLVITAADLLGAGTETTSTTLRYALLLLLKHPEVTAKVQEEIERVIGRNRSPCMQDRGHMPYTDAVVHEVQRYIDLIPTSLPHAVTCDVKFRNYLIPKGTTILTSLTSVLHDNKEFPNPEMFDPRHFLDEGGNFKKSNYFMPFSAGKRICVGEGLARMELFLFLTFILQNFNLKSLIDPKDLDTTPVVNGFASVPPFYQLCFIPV

T1 sequence (P10635 whole entry): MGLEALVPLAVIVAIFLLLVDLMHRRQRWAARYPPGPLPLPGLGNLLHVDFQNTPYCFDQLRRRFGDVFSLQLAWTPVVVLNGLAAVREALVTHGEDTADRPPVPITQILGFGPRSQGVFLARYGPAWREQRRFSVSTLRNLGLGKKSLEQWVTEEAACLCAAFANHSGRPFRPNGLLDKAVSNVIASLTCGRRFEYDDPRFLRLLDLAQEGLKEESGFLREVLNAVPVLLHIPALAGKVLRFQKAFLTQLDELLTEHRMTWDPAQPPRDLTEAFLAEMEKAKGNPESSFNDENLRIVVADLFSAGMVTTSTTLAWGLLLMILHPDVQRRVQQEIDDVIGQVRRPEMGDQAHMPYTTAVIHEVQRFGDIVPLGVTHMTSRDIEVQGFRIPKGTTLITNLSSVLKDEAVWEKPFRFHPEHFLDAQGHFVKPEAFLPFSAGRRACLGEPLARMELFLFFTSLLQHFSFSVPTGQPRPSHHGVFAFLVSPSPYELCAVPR
T2 sequence (P11712 whole entry): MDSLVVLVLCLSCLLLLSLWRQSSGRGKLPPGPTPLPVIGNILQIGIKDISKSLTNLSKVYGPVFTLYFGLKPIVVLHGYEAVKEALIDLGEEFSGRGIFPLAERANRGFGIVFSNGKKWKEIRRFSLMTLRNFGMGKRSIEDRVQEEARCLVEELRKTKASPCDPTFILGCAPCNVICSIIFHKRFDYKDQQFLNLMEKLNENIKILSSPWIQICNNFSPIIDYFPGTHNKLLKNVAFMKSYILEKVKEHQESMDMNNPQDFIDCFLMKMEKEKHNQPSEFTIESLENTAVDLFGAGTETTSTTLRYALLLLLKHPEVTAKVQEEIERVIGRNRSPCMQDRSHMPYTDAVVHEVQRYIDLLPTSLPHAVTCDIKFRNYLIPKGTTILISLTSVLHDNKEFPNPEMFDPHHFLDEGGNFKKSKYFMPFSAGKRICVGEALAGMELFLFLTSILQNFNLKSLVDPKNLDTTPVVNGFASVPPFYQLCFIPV

With COc1ccc(/C=C/c2cc(OC)cc(B(O)O)c2)cc1 [VMY-BC-1] the “Stability in simulated gastric fluid” value [1] was “stable”, the “Stability in simulated gastric fluid, pH 1.2” value ([1]; pH 1.2) was 87.81% remaining and the “Autophagy proteins and phosphorylation of ULK1 and LC3 A/B (Western blot)” value [2] was “increasing amounts of autophagy proteins over time as well as increased phosphorylation of ULK1 and LC3 A/B”. The “Bound (%)” value ([3]; Mouse Brain Homogenate) was 30.08%, the fraction unbound ([3]; Mouse Brain Homogenate) was 0.699 and the recovery ([3]; mouse, mouse brain homogenate) was 108%. The “PolyQ aggregations vs vehicle (DMSO)” value [4] was “decreased”, the TNBC cell invasion [5] was “significantly inhibited TNBC cell invasion in a time-dependent manner” and the Plasma clearance ([6]; 1 mg/kg intravenously) was 50 % of hepatic blood flow. It also gave a half-life ([6]; male, CD1, mouse, plasma, iv, 1 mg/kg intravenously, read-out: Elimination half-life (converted)) of about 1 h, a Vd ([6]; male, CD1, mouse, plasma, iv, 1 mg/kg intravenously, read-out: Volume of distribution) of 2.4 L/kg and a bioavailability ([6]; male, CD1, mouse, plasma, 25 mg/kg oral, read-out: Oral suspension bioavailability F (%)) of over 100%. For the same molecule, the Cmax ([6]; male, CD1, mouse, plasma, oral, dose not given, read-out: Mean maximum concentration (Cmax)) was 3060 ng/mL, the Tmax ([6]; male, CD1, mouse, plasma, oral, read-out: Time to maximum concentration (Tmax)) was 1 to 2 h and the “Increase in Cmax” value ([6]; oral dose 25 to 100 mg/kg) was “approximately 5 fold”. For the same molecule, the “Increase in plasma exposures” value ([6]; oral dose 25 to 100 mg/kg) was about 7 fold, the pIC50 [7] was under 4.00 and the logD [8] was 3.37. The pIC50 [9] was 4.11, the “Autophagy proteins and phosphorylation of ULK1 and LC3 A/B (Western blot)” value [10] was “increasing amounts of autophagy proteins over time as well as increased phosphorylation of ULK1 and LC3 A/B” and the “Pathways altered (Ingenuity Pathway Analysis)” value [11] was “activation of apoptosis, autophagy, and DNA damage pathways, and inhibition of mTOR1, PI3K, and AKT pathways”. For the same molecule, the “Maximal median lifespan extension” value ([12]; 1 μM) was about 25%, the Lifespan ([12]; 0.1 to 10 μM) was “dose-dependent lifespan extension” and the pIC50 [13] was 4.02.
